Measured values taken from patent US20230181553A1, “COMPOSITION FOR HAIR IMPROVEMENT” (Dr. Cherry Inc., priority 2020, published 2023).

Legend:
PPARγ = system: PPARγ; set-up: species or system Wistar Rat; settings: rat, in vivo
Experimental: Next, change in gene expression in a tissue was checked. As a subject, 12 weeks old Wistar Rat (male) was used. Regarding a 2.5 µg/portion administration group, three regions were set on the back from the head to the tail, and each of these regions was divided into two regions on both left and right sides of the spine to set six regions on the back in total. In such an administration group, PG was administered to two portions around the center of each of the six regions. Specifically, in the 2.5 µg/portion administration group (n = 3), 2.5 µg (20 µL) of PG was administered per portion. Besides, regarding a 0.1 µg/portion administration group and a 0.02 µg/portion administration group, two regions were set from the head to the tail, and each of these regions was divided into two regions on both left and right sides of the spine, and thus, four regions in total were set on the back. […]
The collected tissue piece was frozen with liquid nitrogen, and stored at -80° C. […] For gene expression analysis by quantitative PCR, design and synthesis of a gene specific primer and a probe were entrusted to Integrated DNA Technologies, Inc. (Skokie, IL, USA), and an expression level of a target gene was analyzed with Prime Time Gene Expression Master Mix reagent (Integrated DNA Technologies, Inc., Skokie, IL, USA) and a Rotor-Gene Q PCR device (QIAGEN GmbH, Hilden, Germany). […]

hair cuticle = experiment: Hair quality evaluation of hair cuticle by scanning electron microscope; assay type: in vivo, human
Text: The hair of the group administered with PG (administered twice a month) of Example 3 was collected, and in consideration of the growing rate (15 mm/month) of the hair of the patient, a portion corresponding to a period 2 months to 3 months (about 2.5 months) before the treatment and a portion corresponding to a period 4 months to 5 months (about 4.5 months) after starting the treatment were collected to be hermetically stored respectively in Ziploc(R). Thereafter, hair of a test site was adhesively fixed on a fixing plate with a resin. The resultant was hermetically stored, and on test day, was subjected to carbon fixation, and a state of hair cuticle was observed by an ordinary method with a scanning electron microscope on the same day. As a negative control, hair of the same patient in a portion not treated (untreated in the half side treatment) was used. Then, a portion of the hair newly grown (on the root side) and an existing portion (on the tip side) were compared with each other. A representative example is illustrated in FIG. 2. The same evaluation was performed on a larger number of patients (three patients[…]) (15 mg of PG, administered twice a month, administration 12 times in total, 6 months). The evaluation was performed 20 days after the final administration based on an electron microscope image in accordance with the following rating. The evaluation was performed by 6 doctors. An average of ratings was obtained. 5: Cuticle is aligned, and is not rough at all. 4: Cuticle is aligned than average, but is slightly rough. 3: Cuticle is aligned averagely. 2: Cuticle is rough than average, and is slightly peeled. […] Cuticle is rough as a whole, and is peeled as a whole.

[1] = treated side relative to untreated side

CCc1ccc(CCOc2ccc(CC3SC(=O)NC3=O)cc2)nc1 (stereo not drawn) [pioglitazone]
expression of PPARγ (PPARγ): found to increase | hair quality rating, Root (hair cuticle; Treated Side, rating 1-5 (5: cuticle aligned, not rough at all), average of 6 doctors, three patients, 15 mg PG twice a month, 12 times, 20 days after final administration): 3.7 | hair quality rating, Tip (hair cuticle; Treated Side, rating 1-5, average of 6 doctors, three patients, 15 mg PG twice a month, 12 times, 20 days after final administration): 2.6 | state of hair cuticle, newly grown portion (root side) vs tip side (hair cuticle; treated hair, PG twice a month, representative example FIG. 2): the hair quality was obviously improved | Degree of Improvement, Root (hair cuticle; [1]): 1.12 | Degree of Improvement, Tip (hair cuticle; [1]): 1.0
